This is an account of results in PMC7463460, “Structure and Antiparasitic Activity Relationship of Alkylphosphocholine Analogues against Leishmania donovani” (Microorganisms, 2020).

“And” between values parts separate entries of the source, which are not always exact repeats. Equal values may be shown once.

The test system of series [1] is L. donovani 087/11 Milt-Sb-intermediate intracellular amastigotes. Briefly: Intracellular amastigote assay, Milt-resistant 087/11. The series is classed as cell-based, Leishmania donovani. The note with it: for IC50: Leishmania donovani, read-out: Mean IC50 Value Amastigotes; for Cross-Resistance Index (CRI50) Amast / Selectivity Index (SI50): strain 087/11, Milt-Sb-intermediate; for Selectivity Index (SI50): macrophage CC50 / amastigote IC50. From the text: (§1) L. donovani cloned strains with different Sb susceptibility backgrounds were derived from isolates obtained from VL patients at the B.P. Koirala Institute of Health Sciences, Dharan, Nepal: MHOM/NP/02/BPK282/0cl4 (Sb sensitive, Sb-S). MHOM/NP/02/BPK087/0cl11 (Sb intermediate, Sb-I) and MHOM/NP/02/BPK275/0cl18 (Sb resistance, Sb-R [13]). In addition, Milt-resistant parasites raised against these three Sb sensitivity backgrounds and the Sb-sensitive strain (MHOM/ET/67:LV82) was also used in studies. Luciferase expressing promastigotes for the LV82 and Nepalese strains were prepared using previously published methods and the integrative construct (a gift from Dr D.F. Smith), designated pGL1313, contained pSSU-int fragments to facilitate integration into the ribosomal RNA locus of Leishmania.
(§2) In the macrophage studies, the method described in previous studies was used as follows. Briefly, bone-marrow-derived BALB/c macrophages (1–2 × 10^5) in 100 µL complete RPMI 1640 medium were added to the wells of a 96 well plate and left to adhere for 24 h at 37 °C, 5% CO₂/95% air. The medium was removed and 100 µL of the appropriate L. donovani luciferase-expressing promastigotes line (parasite: host cell ratio 1:10, 1:20 or 1:40) was added to each well, the ratio used reflected the infectivity of the strain and ensured that control data gave a bioluminescent signal within the same range. […] The variability in infectivity complicates strain to strain comparisons, but we decided to focus on achieving good infection levels in controls so that the effect of drug treatment could be determined. It is possible that intracellular macrophage parasites could have been at different developmental stages at 24 h post-infection. […] Therefore, we assumed that the effect of compounds on the amastigote stage rather than the promastigotes stage was determined in in vitro macrophage studies.
The plate was incubated for a further 24 h, the medium removed, and each well washed with PBS to eliminate non-internalized parasites, which were monitored microscopically. When the wells were devoid of external parasites, 100 µL of the medium alone (control) or appropriate APC compound was then added (0.01–0.197 µg/mL, n = 3/treatment). […]. All plates were incubated for 72 h at 37 °C, 5% CO₂/95% air. Wells with macrophage and with no drug or promastigotes added were used in control experiments.
(§3) Luciferin solution (1 µg/mL in 20 µL medium without FCS) was added to the appropriate wells of the 96-well plate at the end of the experiment and the amount of light emitted/well was measured using a luminometer (Biotek Synergy HT, relative light units) using a wavelength/bandwidth of 440/40 nm, or IVIS® imaging (Spectrum Living Image system®, total flux, photons/sec).
The effect of drug treatment on parasite survival was determined by calculating the mean suppression in the light emitted from the drug-treated experimental sample compared to the mean control value and used to calculate the IC50 using Grafit® software (version 5.0, Erithacus Software, East Grinstead, West Sussex, UK). The effect of drug alone on the viability of uninfected macrophages was determined using the same experimental protocol above, but cell viability was determined using an alamar blue colorimetric assay. At the end of the incubation period, cells’ 10 µL resazurin solution (0.02% w/v) was added to control and drug treated cells and the absorbance of samples was read at 575 and 595 nm. The effect of drug treatment on cell survival, which correlates with the magnitude of dye reduction, was expressed as percentage viability (or alamar blue reduction) and determined using the formula provided in the manufacturer’s protocol % alamar blue reduction=(εoxλ)(Aλ1)−(εoxλ1)(Aλ2)/(εredλ1)(A^′λ2)−(εredλ2)(A^′λ1)x100 […]

The subject of series [2] is L. donovani 087/11 Milt-Sb-intermediate promastigotes. Briefly: Promastigote luciferase assay, Milt-resistant 087/11. The series is classed as cell-based, Leishmania donovani. As to conditions: for IC50: Leishmania donovani, read-out: Mean IC50 Value Promastigotes; for Cross-Resistance Index (CRI50) Promast / Promast: Amast Ratio: strain 087/11, Milt-Sb-intermediate.
Text: as §1
(§4) The anti-leishmanial activity of APC against L. donovani luciferase-expressing promastigotes was determined by adding of the appropriate 100 µL parasite line (10^6 cells/mL) to the wells of a 96-well plate and adding 100 µL medium alone (controls) or 100 µL of APC compound (0.01 µg/mL–6.25 µg/mL, n = 3/treatment). […].
as §3
(§5) The effect of drug treatment on parasite survival was determined by calculating the mean suppression in the light emitted from the drug-treated experimental sample compared to the mean control value and used to calculate the IC50 using Grafit® software (version 5.0, Erithacus Software, East Grinstead, West Sussex, UK). The effect of drug alone on the viability of uninfected macrophages was determined using the same experimental protocol above, but cell viability was determined using an alamar blue colorimetric assay. At the end of the incubation period, cells’ 10 µL resazurin solution (0.02% w/v) was added to control and drug treated cells and the absorbance of samples was read at 575 and 595 nm. The effect of drug treatment on cell survival, which correlates with the magnitude of dye reduction, was expressed as percentage viability (or alamar blue reduction) and determined using the formula provided in the manufacturer’s protocol % alamar blue reduction=(εoxλ)(Aλ1)−(εoxλ1)(Aλ2)/(εredλ1)(A^′λ2)−(εredλ2)(A^′λ1)x100
(§6) Cross resistance (CRI50) indexes were determined as Cross selectivity indices (CRI)=mean IC50 value for the relevant drug−resistant strain i.e., Sb−I or Sb−R / mean IC50 value drug−sensitive strain Sb−S

Series [3] relates to L. donovani 282/4 Milt-Sb-sensitive intracellular amastigotes. Briefly: Intracellular amastigote assay, Milt-resistant 282/4. The series is classed as cell-based, Leishmania donovani. The note with it: for IC50: Leishmania donovani, read-out: Mean IC50 Value Amastigotes; for Selectivity Index (SI50): strain 282/4, Milt-Sb-sensitive, macrophage CC50 / amastigote IC50.
Text: as §1, §2
The plate was incubated for a further 24 h, the medium removed, and each well washed with PBS to eliminate non-internalized parasites, which were monitored microscopically. […]
as §3, §5

On the set-up of series [4]: method as in Anatrace product description sheet. As to conditions: critical micellar concentration; ref Anatrace product description sheet; cited from earlier work.
Series [5] has as its system L. donovani 087/11 (Sb-intermediate) promastigotes. Briefly: microbe, parasite or virus in culture. Format: cell-based, Leishmania donovani. The note with it: for IC50: Leishmania donovani, read-out: Mean IC50 Promastigotes; for Promast: Amast Ratio: strain 087/11, Sb-intermediate; for Cross-Resistance Index (CRI50) Promast: strain 087/11, Sb-intermediate vs Sb-S.
Text: as §1, §3
The effect of drug treatment on parasite survival was determined by calculating the mean suppression in the light emitted from the drug-treated experimental sample compared to the mean control value and used to calculate the IC50 using Grafit® software (version 5.0, Erithacus Software, East Grinstead, West Sussex, UK). The effect of drug alone on the viability of uninfected macrophages was determined using the same experimental protocol above, but cell viability was determined using an alamar blue colorimetric assay. […] The effect of drug treatment on cell survival, which correlates with the magnitude of dye reduction, was expressed as percentage viability (or alamar blue reduction) and determined using the formula provided in the manufacturer’s protocol % alamar blue reduction=(εoxλ)(Aλ1)−(εoxλ1)(Aλ2)/(εredλ1)(A^′λ2)−(εredλ2)(A^′λ1)x100
as §6

Series [6] has as its system L. donovani 275/18 (Sb-resistant) promastigotes. Briefly: Promastigote luciferase assay, Sb-resistant strain 275/18. The series is classed as cell-based, Leishmania donovani. As to conditions: for IC50: Leishmania donovani, read-out: Mean IC50 Promastigotes; for Promast: Amast Ratio: strain 275/18, Sb-resistant; for Cross-Resistance Index (CRI50) Promast: strain 275/18, Sb-resistant vs Sb-S.
Text: as §1, §4, §3, §5, §6

With `CCCCCCCCCCCCOP(=O)([O-])OCC[N+](C)(C)C` [APC12, dodecylphosphocholine], the IC50 in series [1] was 6.17 µg/mL and 17.6 µM; in series [2], 184 µg/mL and 520 µM; in series [3], 0.08 µg/mL and 230 nM; in series [5], 0.42 µg/mL and 1.19 µM; in series [6] it was 0.49 µg/mL and 1.39 µM. Further, the “Cross-Resistance Index (CRI50) Amast” value in series [1] is on record as 77.13. In addition, the “Selectivity Index (SI50)” value in series [1] was found to be 5.73; in series [3], 442.25. In addition, the “Cross-Resistance Index (CRI50) Promast” value is reported as above 1.47 in series [2], 0.76 in series [5] and 0.89 in series [6]. The “Promast: Amast Ratio” value in series [2] turned out to be 29.82; in series [5] it was 2.11; in series [6], 2.10. Moreover, in series [4], the CMC is given as 351.50 µg/mL.
As to `CCCCCCCCCCCCCCOP(=O)([O-])OCC[N+](C)(C)C` [APC14, tetradecylphosphocholine], in series [1], the IC50 is 10 µg/mL and 26.4 µM; the “Cross-Resistance Index (CRI50) Amast” value is reported as above 5.95; the “Selectivity Index (SI50)” value worked out at 4.08. In series [2], the IC50 is 232 µg/mL and 630 µM; the “Cross-Resistance Index (CRI50) Promast” value was above 1.86; the “Promast: Amast Ratio” value worked out at 23.13. Further, in series [3], the IC50 is > 1.73 µg/mL and > 4.56 µM; the “Selectivity Index (SI50)” value is recorded as above 23.64. For the same compound, the CMC in series [4] is reported as 45.54 µg/mL. Moreover, in series [5], the IC50 is 0.21 µg/mL and 550 nM; the “Promast: Amast Ratio” value was 1.05; the “Cross-Resistance Index (CRI50) Promast” value worked out at 0.48. Besides, in series [6], the IC50 was 0.37 µg/mL and 970 nM; the “Promast: Amast Ratio” value was 1.31; the “Cross-Resistance Index (CRI50) Promast” value came out at 0.84.
Consider `CCCCCCCCCCCCCCCCOP(=O)([O-])OCC[N+](C)(C)C` [APC16, hexadecylphosphocholine, reference compound], for which the IC50 in series [1] is 12.7 µg/mL and 31 µM; in series [2], 242 µg/mL and 560 µM; in series [3] it was > 1.61 µg/mL and > 3.95 µM; in series [6], 1.26 µg/mL and 3.09 µM. Moreover, the “Promast: Amast Ratio” value stood at 19.13 in series [2], 5.15 in series [5] and 2.49 in series [6]. The CMC in series [4] is listed as 0.41 µg/mL.
